# Reference: a melting point compilation (Tetko et al.; mined from patent text by program, amines drawn as free bases though some values may be those of a salt)
row,melting point,Compound
1,91 to 93 °C,COc1cc(OC)c(C(C)=O)cc1OC
2,99 to 101 °C,CC(=O)c1cccc(C)c1NC(=O)CCBr
3,133 °C,CCCCCCC(=O)Nc1cccc2c1C(=O)c1ccccc1C2=O
4,123 to 125 °C,Cc1cccc(OS(=O)(=O)c2ccc(N3CCN(C)C3=O)cc2)c1
5,134 to 140 °C,CCCCN1CCOC2c3cccc4[nH]cc(c34)CC21 (centres undefined)
6,103 °C,Cc1ccc(S(=O)(=O)N2[C@@H](Cc3nc(C)no3)CC[C@H]2c2ccc(F)cc2)cc1 (racemic)
7,48 to 49.5 °C,COc1ccc(S(=O)(=O)CC(=O)C(C)C)cc1
8,99 to 100 °C,CCOC(=O)c1cnc2c(C)csc2c1NCc1ccccc1
9,161 °C,CC(O)C(CCCc1ccccc1)n1ncc2c(=O)[nH]c(Cc3ccc(Cl)c(Cl)c3)nc21 (centres undefined)
10,120 to 123 °C,CC(C)(C)OC(=O)N1CCCC(c2ccc3c(c2)C2(CO3)C(=O)Nc3ccccc32)C1 (centres undefined)
11,263 to 265 °C,Fc1ccc(-c2[nH]cc(C3CCN4CCCC4C3)c2-c2ccncc2)cc1 (centres undefined)
12,162 to 166 °C,O=C(Nc1ccc(C(=O)N(CCN2CCC(C(=O)c3ccc(F)cc3)CC2)c2cccnc2)cc1)c1ccccc1
13,102 °C,NCCn1c(NC2CCN(Cc3ccccc3)CC2)nc2cccnc21
14,219 to 222 °C,CC(=O)Nc1ccccc1CN1CCC(CCC(=O)c2ccc(Nc3ncnc4c3CCC4)cc2)CC1
15,137 to 139 °C,Clc1ccc(-c2c(Cc3nc4ccccc4o3)cnn2-c2ccccc2)cc1
16,195 to 196 °C,O=C(NN=Cc1ccc2ccccc2n1)c1ccccc1[N+](=O)[O-]
17,86 to 87 °C,COc1ccc2c(=O)n3c(cc2c1)SCCC3
18,168 to 169 °C,CN(C)C(=O)c1c(-c2ccc3ccccc3c2)ccc2ccccc12
19,176 to 178 °C,CCCC(=O)c1cnc2cc(CO)ccc2c1Nc1ccccc1C

row,melting point,Compound
1,> 250 °C,COC(=O)c1cccc2[nH]c(Sc3cccc4c(=O)cc[nH]c34)nc12
2,111 to 119 °C,OCCOCCNCc1ccc(-c2cc3ncnc(Nc4ccc5[nH]ccc5c4)c3s2)cc1
3,161 to 162 °C,CCSc1cccc(-c2nc(=O)c3ccccc3s2)n1
4,180 to 181 °C,Cc1ccc2c(c1)C(C(=O)Nc1ccccc1C(C)C)c1ccccc1CO2 (centres undefined)
5,111 to 113 °C,CCC(c1ccc(Cl)nc1)N(Cc1ccc(C(=O)O)cc1)S(=O)(=O)c1ccc(Cl)cc1 (centres undefined)
6,213 to 214 °C,Cc1oc(-c2ccc3ccccc3c2)nc1C=Cc1ccc(/C=C/C=O)cc1
7,115 to 117 °C,CC(C)(C)OC(=O)CN1CC(c2ccsc2)SCC(N)C1=O (centres undefined)
8,118 to 120 °C,COc1cc2c(c(-c3cc(F)ccc3F)c1)OC(CN)C2 (centres undefined)
9,152 to 153 °C,Cc1c(O)c(C)c2c(C)cn(C(=O)C(C)(C)C)c2c1C
10,153 to 156 °C,CON1CCC(C#N)(N(O)C(=O)Cc2cc(C)ccc2C)CC1
11,152 to 153 °C,CS(=O)(=O)c1ccc(-c2cc(C(F)(F)F)nn2-c2ccc(C#N)cc2)cc1F
12,212 to 213 °C,CCOCCOc1ccc(-c2ccc3c(c2)C=C(C(=O)Nc2ccc(CN(C)C4CCOCC4)cc2)CCS3(=O)=O)cc1C
13,132 to 138 °C,CCOC(=O)C(COC(=O)COc1ccc(NC(=O)c2ccccc2-c2ccc(C(F)(F)F)cc2)c(C(=O)N(C)C)c1)(C(=O)OCC)c1ccccc1
14,68 to 69 °C,CC1Cc2c(F)cc(F)cc2C1=O (centres undefined)
15,254 to 256 °C,COc1ccnc(CSc2nc3cc(Cl)c(Cl)cc3[nH]2)c1C
16,260 °C,CCOC(=O)C(=NO)c1csc(NC(c2ccccc2)(c2ccccc2)c2ccccc2)n1
17,144 °C,C=CCC1NC(=O)C1C(C)(C)O (centres undefined)
18,146 to 147 °C,O=[N+]([O-])c1cccnc1Nc1ccc2c(c1)COC2
19,116 to 117 °C,CCOC(=O)C1(C(=O)OCC)Oc2c(ccc(OC)c2Cl)C1O (centres undefined)

# The next lines start with the compound.
row,Compound,melting point
1,O=C(CI)N1CCN(C(=O)CI)CC1,105 to 109 °C
2,O=[N+]([O-])c1ccccc1OC[C@@H](O)CNCCc1ccc(Cl)c(Cl)c1,73 to 74 °C
3,CCc1cc(C(F)(C(F)(F)F)C(F)(F)C(F)(F)F)cc(C)c1NC(=O)c1cccc(NC(=O)c2ccc(C#N)cc2C)c1OC (centres undefined),104 to 105 °C
4,CC(C)c1cccc(C(C)C)c1NC(=O)CN1CCN(CCSc2nc3ccccc3s2)CC1,170 to 171 °C
5,FC(F)(F)c1cccc(C2=CCNc3ccnn32)c1,61 to 64 °C
6,CCCCc1nc2c(N)nc3ccccc3c2n1CCCNC(=S)Nc1ccccc1,143 to 144 °C
7,COc1cc(-n2nc(C#N)cc2-c2ccc(S(C)(=O)=O)cc2)ccc1Br,212 to 214 °C
8,CCOC(=O)C(=O)Nc1ccc(C(N)=O)c(C(N)=O)c1,229 to 230 °C
9,O=C(Cc1ccccc1[N+](=O)[O-])c1ccccc1F,84 to 86 °C
10,COc1cc(OC)nc(NC(=O)NS(=O)(=O)c2c([N+](=O)[O-])ccc3c2CCC3)n1,162 to 172 °C
11,CS(=O)(=O)c1nc(Cl)c(Cc2ccccc2)c(N2CCCC2)n1,136 to 138 °C
12,CC(C)(C)OC(=O)N1CCN2C(=O)N(c3cc(Cl)cc(Cl)c3)C(=O)C2C1 (centres undefined),60.2 °C
13,COc1ccc(C(=O)Nc2cccnc2Cl)cc1,125 °C
14,CC(=O)c1cn(-c2c(Cl)cc(C(F)(F)F)cc2Cl)nc1C#N,166 to 168 °C
15,CC(=O)NCCCc1ccc(Cl)c2occc12,61 to 62 °C
16,CCNc1nc(OC)c(C(=O)NCC2CCCN2C2CCCCC2)nc1Cl (centres undefined),164 to 165 °C
17,CC(C)(C)C(O)(Cn1cncn1)C1CC1c1ccc(Cl)cc1Cl (centres undefined),98 to 101 °C
18,COC(=O)[C@H](Cc1c[nH]cn1)NC(=O)C(CCCCc1ccccc1)Cc1cccc2ccccc12 (some centres undefined),45 to 47 °C
19,CNC(=O)c1ccc(C(=O)OC)cc1,126 °C
20,O=C1CCc2c(Cl)cc(Cl)c(OS(=O)(=O)C(F)(F)F)c21,90 to 96 °C
21,Nc1nc2ccc(C(O)C(CO)N3CCC(Cc4ccccc4)CC3)cc2s1 (centres undefined),155 to 157 °C

row,Compound,melting point
1,O=C(NC12CC3CC(CC(C3)C1)C2)c1cc(O)c(O)cc1Cl,225 to 230 °C
2,CC(C)(C)c1cc(C(C#N)N2CCCCC2)cc(C(C)(C)C)c1O (centres undefined),110 to 111 °C
3,CC(C)(C)c1cc(CSCN(O)CSCc2cc(C(C)(C)C)c(O)c(C(C)(C)C)c2)cc(C(C)(C)C)c1O,98 to 101 °C
4,CCOC(=O)C1(CC(N)=O)C(=O)N2CCOc3cc(Cl)cc1c32 (centres undefined),227 to 229 °C
5,Fc1c(Cl)cc(Br)c2ccccc12,48 to 51 °C
6,CCOC(=O)C(=C1SC(=S)N(CC(=O)O)C1=O)c1csc(NC(=O)c2ccccc2)n1,278 to 281 °C
7,CC1(C)CC(=O)C(F)C(C)(C)C1 (centres undefined),27 to 31 °C
8,Nc1ccccc1NC(=O)c1cc2cc(OCCO)ccc2[nH]1,222 to 223 °C
9,Cn1c(=O)oc2cc3c(cc21)OCC31C(=O)N(Cc2ccc(C(F)(F)F)o2)c2ccccc21 (centres undefined),198 to 199 °C
10,CC(C)N1CC(CCN2CCN(c3ccccc3)CC2)OC1=O (centres undefined),74 to 75 °C
11,COc1cc(OC)nc(Sc2sccc2[N+](=O)[O-])n1,199 to 201 °C
12,CN1C(C)(C)CC(N(CCCCCCN(C2CC(C)(C)N(C)C(C)(C)C2)P2OCC(C)(C)CO2)P2OCC(C)(C)CO2)CC1(C)C,103 °C
13,CCCC=Cc1c(C(C)C)nc(C(C)C)c(CO)c1-c1ccc(S(C)=O)cc1 (centres undefined),133 to 135 °C
14,CON(C)C(=O)c1ccc2nc(Cl)nc(-c3cccc(Cl)c3)c2c1,110 °C
15,Cc1ccc(C)c(Oc2oc(-c3ccc(Cl)cc3)nc2CC(=O)O)c1,185 °C
16,COc1ccc2c(c1)C(=O)c1c-2n(CCCCl)c(=O)c2ccccc12,195 to 198 °C
17,CCOC(=O)c1ccc(NC(=O)C=C(c2ccccc2)c2ccc(C)cc2)cc1,122 to 124 °C
18,CCC(C(=O)N(CC)CC)n1cc(Cl)c(-c2ccccc2)n1 (centres undefined),47 to 49 °C
19,Cc1ccc2c(NCc3ccc(NC(=O)C4CCN(Cc5ccccc5)CC4)cc3)nc(N3CCCC3)nc2c1,96 °C
20,Cc1cc(SC2=C(O)CC(CCc3ccc(O)cc3)(CCc3ccc(O)cc3)OC2=O)c(C(C)(C)C)cc1OS(=O)(=O)N1CCN(C)CC1,150 °C
21,CCOc1ccccc1-c1ncc(C(N)=O)c(=O)[nH]1,236 to 238 °C

row,Compound,melting point
1,CNC(=O)C1CCCN1S(=O)(=O)c1ccc(N2CCC(NC[C@H](O)COc3cccc4[nH]c(=O)[nH]c34)CC2)cc1 (some centres undefined),36 to 39 °C
2,COC(=O)C=CC(=O)c1ccc(Oc2ccccc2)cc1,88 to 90 °C
3,CSCc1c(N)c(C#N)cc(F)c1F,109 to 110 °C
4,COc1c(OC(C)=O)ccc(C=O)c1[N+](=O)[O-],84 to 86 °C
5,O=C(c1ccccc1)c1ccc(OC(=O)C2CCCCC2)cc1,111 to 112 °C
6,O=[N+]([O-])CCc1[nH]ccc1-c1ccc(I)cc1,88 to 89 °C
7,Cn1cnnc1S(=O)CC(=O)C12CC3CC(CC(C3)C1)C2 (centres undefined),124 to 127 °C
8,CC12CCC3C(CC=C4CC(O)CCC43C)C1=CCC2=O (centres undefined),161 to 164 °C
9,CN(C)C1(c2ccccc2)CCC(C#N)(N2CCCC2)CC1 (centres undefined),136 to 142 °C
10,CCCCN1C(=O)NC(CO)C1=O (centres undefined),93 °C
11,COc1ccc(Nc2nc(NC3CCCCCC3)cc(N3CCC(O)CC3)n2)cc1Cl,84 to 86 °C
12,COc1ccc(C(=O)C2C(Cl)=CC=CC2(C)Cl)c(OC(=O)Cc2ccccc2)c1OC (centres undefined),106 °C
13,OC(CCN1CCC(c2ccc(F)cc2)CC1)c1ccc(-c2ccccc2)cc1 (centres undefined),129 to 132 °C
14,NC(=O)CCCCn1ccc(NC(N)=NCC(F)(F)F)n1,130 °C
15,CC(C)Cn1cnc2c(N)nc3ccc(CCc4ccccc4)cc3c21,175 to 178 °C
16,CCc1[nH]n(C2CCCC2)c2nc(-c3ccccc3-n3ccnc3)nc(=O)c1-2,192 to 194 °C
17,COC1(c2cccc(OCc3ccc4ccccc4c3)c2)CC(C)OC(C)C1 (centres undefined),105 to 107 °C
18,Cc1c(C)c2c(c(C)c1OCc1ccccc1)CC[C@@](C)(CO)O2,66 to 69.5 °C
19,Cc1ccnc(C(=O)n2cc(CC(=O)O)c3cc(C)ccc32)c1,220 to 226 °C
